According to US6664397B1, “Use of (+)mefloquine for the treatment of malaria” (Vernalis Research Limited, priority 1997, dated 2003):

Key:
travellers = conditions: 3851 travellers surveyed, prophylactic use; cited from earlier work
mice [1] = test: Irwin screen of overt physiological and behavioral effects in mice; conditions: for reduced activity, unkempt appearance, hunched body posture (late effects): high dose, daily p.o. dosing, about five days
[2] = biological target: bovine striatal adenosine receptors (non-selective); conditions: displacement of [3H]-NECA
Plasmodium falciparum = conditions: Karle et al. 1993; cited from earlier work
[3] = biological target: T1, human recombinant (HEK-293) adenosine A3 receptors (Homo sapiens, UniProt P0DMS8); conditions: comparative literature data for reference ligands; cited from earlier work
T1 construct: expressed in transfected cells; host or cells: HEK-293
T1 sequence (P0DMS8 1-318): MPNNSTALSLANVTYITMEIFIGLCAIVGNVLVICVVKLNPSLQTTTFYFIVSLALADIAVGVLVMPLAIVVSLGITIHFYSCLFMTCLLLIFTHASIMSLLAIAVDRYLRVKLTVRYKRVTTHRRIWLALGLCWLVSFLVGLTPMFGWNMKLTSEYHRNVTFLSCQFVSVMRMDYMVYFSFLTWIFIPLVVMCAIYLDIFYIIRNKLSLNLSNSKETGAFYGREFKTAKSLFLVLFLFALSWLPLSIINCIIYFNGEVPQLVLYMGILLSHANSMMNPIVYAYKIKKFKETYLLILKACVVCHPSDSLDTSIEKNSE

mice [4] = test: Potentiation of pentylenetetrazole-induced seizures (proconvulsant effect) in mice; conditions: 300 mg/kg p.o., 24 hrs after a single dose
[5] = biological target: T2, adenosine A2A receptors endogenously expressed in PC-12 cells (Rattus norvegicus, UniProt P30543); test: Agonist-induced increase in extracellular acidification rate (ECAR) in PC-12 cells, cytosensor microphysiometer; format: cell-based
T2 construct: PC12 cells endogenously express adenosine A2A receptors; host or cells: PC-12 cells
Method: PC-12 cells (purchased from ECACC) were maintained in RPMI 1640 media (Sigma) supplemented with 2 mM L-glutamine and 10% FCS in a controlled environment of 5% CO2, 95% humidity at 37° C.
On the day of the assay the cells were gently harvested and centrifuged at 700 RPM for 10 min. The supernatant was discarded and the pellet re-suspended to a final density of approx. 1×10^6 cells/ml in modified RPMI 1640 media. 600 μl of this suspension was mixed with 200 μl of molten agarose cell entrapment media (Molecular Devices) pre-incubated to 37° C. The cell suspension was returned to the incubator for a further 10 minutes for equilibration. 10 μl of this cell agarose suspension was spotted onto the middle of the capsule insert well and allowed to set before being placed in the sensor chambers in the cytosensor® microphysiometer. […]
Agonist concentration curves were constructed by exposing the cells to increasing concentrations of agonist for a total exposure time of approximately 1 min 53 sec. Agonist concentration curves in the presence of antagonists were performed following pre-incubation of the cells to the antagonists for at least 20 min prior to agonist exposure (in the presence of the fixed antagonist concentration) Baseline acidification rates were normalised to 100%, and all responses were calculated as a % increase over normalised baseline. […]

T2 sequence (P30543 whole entry): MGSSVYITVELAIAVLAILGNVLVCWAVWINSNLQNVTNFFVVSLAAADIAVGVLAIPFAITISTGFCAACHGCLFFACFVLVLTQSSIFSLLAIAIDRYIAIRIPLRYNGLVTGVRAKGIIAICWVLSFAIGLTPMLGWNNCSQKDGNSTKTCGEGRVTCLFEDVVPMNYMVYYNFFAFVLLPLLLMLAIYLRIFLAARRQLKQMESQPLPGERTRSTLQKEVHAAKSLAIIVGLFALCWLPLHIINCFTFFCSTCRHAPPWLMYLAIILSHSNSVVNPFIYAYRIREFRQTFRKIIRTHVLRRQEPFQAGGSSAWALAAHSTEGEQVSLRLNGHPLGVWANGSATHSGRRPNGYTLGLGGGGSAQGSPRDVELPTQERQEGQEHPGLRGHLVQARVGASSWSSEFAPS

SMILES | reduced activity, unkempt appearance, hunched body posture (late effects) (mice [1]) | Ki [2] | Ki [3] | other results
O[C@H](c1cc(C(F)(F)F)nc2c(C(F)(F)F)cccc12)[C@@H]1CCCCN1 (racemic) [mefloquine, (R*,S*)-(±)-α-2-Piperidinyl-2,8-bis(trifluoromethyl)-4-quinolinemethanol] |  |  |  | adverse neuropsychiatric events compared with proguanil plus chloroquine (travellers): significant excess of adverse neuropsychiatric events
O[C@H](c1cc(C(F)(F)F)nc2c(C(F)(F)F)cccc12)[C@@H]1CCCCN1 [(+)-enantiomer, (+)-(11R,2′S)-α-2-piperidinyl-2,8-bis(trifluoromethyl)-4-quinolinemethanol] | these effects only became apparent after 5-6 days, and did not include seizures | 38 µM |  | factor by which the (+)-enantiomer was more potent than the (−)-enantiomer (Plasmodium falciparum): 1.69-1.81
CNC(=O)[C@H]1O[C@@H](n2cnc3c(N)ncnc32)[C@H](O)[C@@H]1O [MECA, 5′-N-methylcarboxamidoadenosine, reference compound] |  | 0.058 µM |  | 
OC[C@H]1O[C@@H](n2cnc3c(NC4CCCCC4)ncnc32)[C@H](O)[C@@H]1O [CHA] |  |  | 7.7 µM | 
Nc1nc(NCCc2ccc(O)cc2)nc2nc(-c3ccco3)nn12 [ZM241385] |  |  | 151 µM | 
O[C@@H](c1cc(C(F)(F)F)nc2c(C(F)(F)F)cccc12)[C@H]1CCCCN1 [(−)-enantiomer, (−)-(11S,2′R)-α-2-piperidinyl-2,8-bis(trifluoromethyl)-4-quinolinemethanol] | showed reduced activity, unkempt appearance and assumed a hunched body posture | 0.083 µM |  | behavioral effects twenty-four hours after the first dose (mice [1]; 300 mg/kg p.o., 24 hours): difficult to handle and displayed aggression toward cage-mates; qualitative behavioral difference between the enantiomers (mice [1]; daily dosing 30, 100, 300 mg/kg p.o.): appearing more potent in eliciting spontaneous seizures, irritability and aggressiveness; latency to onset of clonic seizures induced by infusion of pentylenetetrazole (PTZ) (mice [4]): significantly reduced the latency to onset of clonic seizures; effect on the CGS 21680-induced increase in ECAR ([5]; agonist CGS 21680, FIG. 6): specific to adenosine A2A receptors; effect on the NECA-induced increase in ECAR ([5]; agonist NECA, FIG. 5): binds to adenosine receptors as an antagonist
